In patent US20190136302A1, “METHODS FOR DETECTING OLIGONUCLEOTIDES IN A SAMPLE” (THE REGENTS OF THE UNIVERSITY OF CALIFORNIA, priority 2016, published 2019):

Experiments:
Capture PRLR SMO oligo = assay: ELOSA competition with PRLR SMO capture oligonucleotide and HRP-PRLR SMO; assay type: binding, mouse; conditions: for hybridization to Capture PRLR SMO / displacement of HRP-PRLR SMO (absorbance): PRLR SMO capture oligonucleotide at increasing concentrations, mouse sequences
Procedure: (§1) The capture reagent was synthesized using a sequence antisense to the test oligonucleotide, along with an amino-terminus and a 12 carbon aliphatic spacer. The amino-terminus allows binding to the wells of a 96-well, polystyrene DNA-binding plate and the spacer minimizes steric hindrance during hybridization of the test oligonucleotides. The capture reagent (2 picomoles/well) was incubated in 100 μl 0.05M phosphate (pH 8.5) —1 mM EDTA at 4° C. for 24 h or longer.
(§2) After washing (3 times with 0.05M TrisHCl (pH 8)—1 mM EDTA), the plate was blocked to reduce non-specific binding (200 μl 3% bovine serum albumin—0.05M TrisHCl (pH 8)—1 mM EDTA at 37° C. for 4 h).
(§3) After washing 3 times, the test oligo and a constant concentration of horseradish peroxidase-labeled oligonucleotide (i.e., the competition oligonucleotide with a sequence the same as test oligo) was incubated with the capture reagent. The amount of competition oligonucleotide hybridized to the capture reagent is inversely proportional to the total amount of test oligonucleotide present. Incubations were in a total final volume of 100 μl in 0.05M TrisHCl (pH 7.5)—1 mM EDTA, with Test oligo (variable doses up to 1 pmole), constant HRP-Oligo (0.5-1 pmole), and a total serum volume of 10 to 25 μl. Incubations were at 37° C. for 15 h.
(§4) After washing 3 times with TBST, the competition oligonucleotide bound to the capture reagent was measured using 100 μl 0.1 mg/ml TMB—1% hydrogen peroxide. After color development, the reaction was stopped with 50 μl 1N H2SO4, and the amount of colored product was measured spectrophotometrically at A450.
For clarity, the PRLR SMO vivo-morpholino is referred to as Antimaia to distinguish it from the oligonucleotides being used for competition or capture, which are called HRP-PRLR SMO and capture PRLR SMO, respectively. […] The methods used for these experiments are described in Example 1.

[1] = system: Capture Control SMO oligo; assay: ELOSA competition with Control SMO capture oligonucleotide and HRP-Control SMO; assay type: binding; conditions: test oligo 5 pmoles; HRP-Control SMO 1 pmole; Capture Control SMO 5 pmoles
Procedure: as §1, with “The capture reagent (2 picomoles/well) was incubated in 100 μl 0.05M phosphate (pH 8.5) —1 mM EDTA at 4° C. for 24 h or longer.” left out
as §2
as §3, with “Incubations were in a total final volume of 100 μl in 0.05M TrisHCl (pH 7.5)—1 mM EDTA, with Test oligo (variable doses up to 1 pmole), constant HRP-Oligo (0.5-1 pmole), and a total serum volume of 10 to 25 μl.” left out
as §4, with “A450. […]” for “A450.”

[2] = system: orthotopic models of breast cancer; conditions: cited from earlier work
[3] = system: prolactin receptor (PRLR); conditions: treatment with PRLR SMO; cited from earlier work

5′-AAAAAGCCCTTCTATTGAAACACAGATACAAAA-3′ (SEQ ID NO: 4) (all phosphorodiamidate morpholino (PMO); vivo-morpholino: octaguanidine derivatization attached, position not given here; listed as Mus sp.) [Antimaia, vivo-morpholino splice-modulating oligomer for the prolactin receptor, phosphorodiamidate morpholino backbone and octaguanidine derivatizations]
sensitivity of the assay (Capture PRLR SMO oligo; Capture PRLR SMO 2 pmoles, HRP-PRLR-SMO 0.5 pmole, presence of serum): 0.25 pmol
hybridization to Capture PRLR SMO / displacement of HRP-PRLR SMO (absorbance) (Capture PRLR SMO oligo): displaced HRP-PRLR SMO
competition easily detected above (Capture PRLR SMO oligo; capture reagent 2 pmoles, HRP-PRLR SMO in the 0.5 pmole range, presence of serum): above 0.2 pmoles
competition with HRP-Control SMO for binding to the Capture Control SMO [1]: essentially no effect
tolerability ([2]; in vivo): well-tolerated
reduction in metastatic spread ([2]; two orthotopic models of breast cancer): 80%
effect on PRLR splice forms [3]: loss of the growth-promoting PRLR without loss of the growth-inhibiting splice form of the PRLR

5′-AAAAAAGACGAGATTCGATCGGAGTAAAA-3′ (SEQ ID NO: 1) (all phosphorodiamidate morpholino (PMO); vivo-morpholino: octaguanidine derivatization attached, position not given here) [Control SMO, reference compound]
hybridization to Capture PRLR SMO / displacement of HRP-PRLR SMO (absorbance) (Capture PRLR SMO oligo): did not hybridize
competition with HRP-Control SMO for binding to the Capture Control SMO [1]: competed
